Tests used:
[1] = xn = mol fraction of the nth substance listed; details: 101.3 kPa, Liquid; for speed of sound: Sing-around technique in a fixed-path interferometer; for mass density: Vibrating tube method
[2] = refractive index (Na D-line) (dimensionless); xn = mol fraction of the nth substance listed; details: 101.3 kPa, Liquid, Standard Abbe refractometry

CCCCn1cc[n+](C)c1.COS(=O)(=O)[O-] [1-butyl-3-methylimidazolium methyl sulfate] + CCCO
Details | mass density, [1] [kg/m3] | refractive index, [2] | speed of sound, [1] [m/s]
298.15 K, x1 = 0.0482 | 852.432 | 1.39591 | 1242.8
298.15 K, x1 = 0.0965 | 896.455 | 1.40632 | 1276
298.15 K, x1 = 0.1937 | 967.583 | 1.42298 | 1338.1
298.15 K, x1 = 0.2929 | 1023.11 | 1.43588 | 1394.2
298.15 K, x1 = 0.3903 | 1066.53 | 1.44583 | 1443.9
298.15 K, x1 = 0.4958 | 1104.3 | 1.45448 | 1491.7
298.15 K, x1 = 0.59 | 1132.04 | 1.46078 | 1529.8
298.15 K, x1 = 0.6907 | 1156.89 | 1.46636 | 1566.3
298.15 K, x1 = 0.7981 | 1179.34 | 1.47134 | 1601.1
298.15 K, x1 = 0.8932 | 1196.47 | 1.47515 | 1629
298.15 K, x1 = 0.951 | 1205.24 | 1.4776 | 1643.1
298.15 K, x1 = 1 | 1212.06 | 1.47824 | 1654.6
303.15 K, x1 = 0.0482 | 848.503 | 1.39407 | 1227
303.15 K, x1 = 0.0965 | 892.596 | 1.40459 | –
303.15 K, x1 = 0.1937 | 963.817 | 1.42138 | 1323.8
303.15 K, x1 = 0.2929 | 1019.43 | 1.43433 | 1380.5
303.15 K, x1 = 0.3903 | 1062.93 | 1.44433 | 1430.6
303.15 K, x1 = 0.4958 | 1100.77 | 1.45302 | 1478.8
303.15 K, x1 = 0.59 | 1128.56 | 1.45937 | 1517.2
303.15 K, x1 = 0.6907 | 1153.44 | 1.46499 | 1553.9
303.15 K, x1 = 0.7981 | 1175.92 | 1.46997 | 1588.9
303.15 K, x1 = 0.8932 | 1192.93 | 1.47378 | 1616.9
303.15 K, x1 = 0.951 | 1201.87 | 1.47628 | 1630.9
303.15 K, x1 = 1 | 1208.7 | 1.47704 | 1642.2
308.15 K, x1 = 0.0482 | 844.545 | 1.39212 | 1211.1
308.15 K, x1 = 0.0965 | 888.716 | 1.40276 | 1245.5
308.15 K, x1 = 0.1937 | 960.044 | 1.41966 | 1309.3
308.15 K, x1 = 0.2929 | 1015.75 | 1.43273 | 1366.6
308.15 K, x1 = 0.3903 | 1059.34 | 1.4428 | 1417.3
308.15 K, x1 = 0.4958 | 1097.25 | 1.45154 | 1465.8
308.15 K, x1 = 0.59 | 1125.08 | 1.45793 | 1504.5
308.15 K, x1 = 0.6907 | 1150 | 1.46358 | 1541.4
308.15 K, x1 = 0.7981 | 1172.52 | 1.46856 | 1576.5
308.15 K, x1 = 0.8932 | 1189.33 | 1.47238 | 1604.7
308.15 K, x1 = 0.951 | 1198.5 | 1.47491 | 1618.7
308.15 K, x1 = 1 | 1205.35 | 1.47577 | 1630
313.15 K, x1 = 0.0482 | 840.564 | 1.39019 | 1195.2
313.15 K, x1 = 0.0965 | 884.815 | 1.4009 | 1230.2
313.15 K, x1 = 0.1937 | 956.26 | 1.41794 | 1294.9
313.15 K, x1 = 0.2929 | 1012.08 | 1.43111 | 1352.8
313.15 K, x1 = 0.3903 | 1055.75 | 1.44126 | 1404
313.15 K, x1 = 0.4958 | 1093.74 | 1.45008 | 1453
313.15 K, x1 = 0.59 | 1121.62 | 1.45649 | 1492
313.15 K, x1 = 0.6907 | 1146.58 | 1.46215 | 1529.1
313.15 K, x1 = 0.7981 | 1169.13 | 1.46715 | 1564.4
313.15 K, x1 = 0.8932 | 1185.78 | 1.4709 | 1592.5
313.15 K, x1 = 0.951 | 1195.15 | 1.47354 | 1606.6
313.15 K, x1 = 1 | 1202.01 | 1.47443 | 1617.9

From the NIST ThermoML archive (doi:10.1016/j.jct.2012.08.030)
